Publication PMC12796447, “Cran1, member of a new class of OLD family ATPases, functions in cell cycle progression in an archaeon” (EMBO Reports, 2025)

Molecular target: T1, Cran1 (Cell cycle-related ATPase and nickase 1) (Saccharolobus islandicus, UniProt F0NG35, E246A)
T1 construct: gene SiRe_0086; full-length, C-terminal His-tag; expressed in Sa. islandicus (ATPase assay) or E. coli BL21(DE3)-RIL; monomer, 55 kDa by gel filtration
Assay: malachite green phosphate release assay
Type: biochemical
Conditions: 1 mM ATP, 0.2 uM protein, 5 mM MgCl2, 25 mM Tris-HCl pH 7.4, 100 mM NaCl; 70 C

T1 sequence (F0NG35 entry or part of it E246A): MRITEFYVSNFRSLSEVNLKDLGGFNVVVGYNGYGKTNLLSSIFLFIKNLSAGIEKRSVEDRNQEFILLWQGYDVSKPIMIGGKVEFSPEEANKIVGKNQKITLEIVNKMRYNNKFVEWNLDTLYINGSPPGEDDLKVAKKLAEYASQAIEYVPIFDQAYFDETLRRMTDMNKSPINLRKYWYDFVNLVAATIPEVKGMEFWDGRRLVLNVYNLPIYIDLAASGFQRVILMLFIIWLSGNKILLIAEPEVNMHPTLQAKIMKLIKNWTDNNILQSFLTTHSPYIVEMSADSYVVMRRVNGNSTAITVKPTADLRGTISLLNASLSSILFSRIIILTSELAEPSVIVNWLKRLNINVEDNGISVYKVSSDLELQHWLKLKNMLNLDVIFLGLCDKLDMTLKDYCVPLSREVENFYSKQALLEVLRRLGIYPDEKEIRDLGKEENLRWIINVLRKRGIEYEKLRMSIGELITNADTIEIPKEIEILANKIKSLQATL

## Nc1ncnc2c1ncn2[C@@H]1O[C@H](COP(=O)(O)OP(=O)(O)OP(=O)(O)O)[C@@H](O)[C@H]1O [ATP]
  malachite green phosphate release assay: substitution of either of the two residues with alanine had no effect both in vitro
